Our source for the IC50 values is ChEMBL document CHEMBL1142618, “Mycalamide D, a new cytotoxic amide from the New Zealand marine sponge Mycale species” (J Nat Prod, 2000).

The IC50 is the point on the concentration scale where inhibition reaches its midpoint.

Holding throughout (assay type): functional, cell-based
One test has as its system SH-SY5Y. The experiment in a line: Cytotoxicity against human SH-SY5Y cells after 96 hrs by MTT assay. (In general: Tetrazolium dyes change colour on reduction, which living cells bring about.)
Test [1] in a line: Cytotoxicity against human H441 cells after 96 hrs by MTT assay. As to conditions: NCI-H441, 96 h.
The test system of another test is LLC-PK1. Description: Cytotoxicity against pig LLC-PK1 cells after 96 hrs by MTT assay. As to conditions: Sus scrofa, LLC-PK1, 96 h.
In another test the test system is P388. Description: Cytotoxicity against mouse P388 cells after 96 hrs by MTT assay. The settings on record: P388, 96 h.

In the case of `C=C1C[C@](OC)([C@H](O)C(=O)N[C@H]2OCO[C@H]3[C@@H]2O[C@H](C[C@H](O)CO)C(C)(C)[C@@H]3OC)O[C@H](C)[C@@H]1C` [MYCALAMIDE A], the IC50 came to 0.52 nM with SH-SY5Y, 0.46 nM in test [1], 0.65 nM in the test on LLC-PK1 and 5.2 nM in the test with P388.
With `C=C1C[C@](OC)([C@H](O)C(=O)N[C@H]2OCO[C@H]3[C@@H]2O[C@H](C[C@@H](CO)OC)C(C)(C)[C@@H]3OC)O[C@H](C)[C@@H]1C` [MYCALAMIDE B], the IC50 with SH-SY5Y was found to be 6.42 nM; in test [1], 9.3 nM; in the test on LLC-PK1, 19.4 nM; with P388, 1.3 nM.
`C=C1C[C@](OC)([C@H](O)C(=O)N[C@H]2OCO[C@H]3[C@@H]2O[C@H](C[C@H](O)CO)C(C)(C)[C@@H]3O)O[C@H](C)[C@@H]1C` [MYCALAMIDE D] had an IC50 in the test on P388 of 65.5 nM. This lies in the double-digit nanomolar range.
